Laboratory results taken from patent US20210052741A1, “GENE THERAPY METHODS AND COMPOSITIONS USING AUXOTROPHIC REGULATABLE CELLS” (AUXOLYTIC LTD, priority 2018, published 2021).
Values joined by “and” are separate entries in the source; they are usually repeats but may differ in a detail not shown here. Equal values may be shown once.

What was measured:
Format in all cases: cell-based, human
UMPS knockout T cells [1] = experiment: Cell counts after recovery post-electroporation; conditions: 4 days recovery post electroporation, no serum, with 5-FOA
Procedure: (§1) K562 cells (acquired from ATCC) and Nalm6 cells (kindly provided by C. Mackall) were cultured in RPMI 1640 (HyClone) supplemented with 10% bovine growth serum, 2 mM L-glutamine and 100 U/ml Penicillin and 100 U/ml Streptomycin. T cells were either used fresh after isolation from buffy coats obtained from healthy donors. T cells were isolated through a Ficoll density gradient centrifugation followed by magnetic enrichment using the Pan T Cell Isolation Kit (Miltenyi Biotec).
(§2) Cells were cryopreserved in BAMBANKER™ medium. After thawing cells were cultured at 37° C., 5% CO2 in X-Vivo 15 (Lonza) supplemented with or without 5% human serum (Sigma-Aldrich) and […] recombinant IL-2 (Peprotech) and 10 ng/ml human recombinant IL-7 (BD Biosciences). […]
(§3) Genomic DNA was harvested using QUICKEXTRACT™ DNA Extraction Kit (Epicentre). Cells were counted on an automated cell counter using Trypan blue staining or on a CytoFLEX flow cytometer (Beckman Coulter) with automatic plate reader using COUNTBRIGHT™ beads (ThermoFisher) as a reference for normalizing the values. Alternatively, cells were analyzed after staining with fluorochrome-labelled antibodies (Biolegend) on an ACCURI™ C6 flow cytometer (BD Biosciences), which also measures volumes, or a FACS ARIA™ II SORP cell sorter (BD Biosciences). Data was analyzed using Excel (Microsoft) and FlowJo software (Tree Star). […]

mock edited T cells = experiment: Cell counts after recovery post-electroporation; conditions: 4 days recovery post electroporation, no serum, with 5-FOA
Procedure: as §1, §2, §3

CCR5 knockout T cells = experiment: Growth time course with/without UMP or uridine; conditions: metabolite 250 μg/ml
Procedure: (§4) Genomic DNA was harvested using QUICKEXTRACT™ DNA Extraction Kit (Epicentre). Cells were counted on an automated cell counter using Trypan blue staining or on a CytoFLEX flow cytometer (Beckman Coulter) with automatic plate reader using COUNTBRIGHT™ beads (ThermoFisher) as a reference for normalizing the values. Alternatively, cells were analyzed after staining with fluorochrome-labelled antibodies (Biolegend) on an ACCURI™ C6 flow cytometer (BD Biosciences), which also measures volumes, or a FACS ARIA™ II SORP cell sorter (BD Biosciences). Data was analyzed using Excel (Microsoft) and FlowJo software (Tree Star).
(§5) T Cells were electroporated and edited as in Example 2 and allowed to recover for a 4-day period in medium with serum, uridine, and UMP. On day 4, cells were shifted to UMP, uridine, or uracil source media.
(§6) To evaluate whether the UMPS knockout leads to differential cell proliferation if cultured without the addition of Uridine or Uridine monophosphate (UMP), the cell counts in culture were followed over time by automatic cell counting with Trypan blue staining. UMPS knockout led to lower cell counts from day 2 after electroporation, compared to cells that were mock electroporated or electroporated using Cas9 targeting a different genomic locus (i.e., CCR5) (FIG. 5B).

Mock T cells [2] = experiment: Growth time course with/without UMP or uridine; conditions: metabolite 250 μg/ml
Procedure: as §4, §5, §6

UMPS knockout T cells [3] = experiment: Growth time course with/without UMP or uridine
Procedure: as §4, §5, §6

Mock T cells [4] = experiment: Uracil auxotrophy growth assay after 5-FOA selection; conditions: after 4 days 5-FOA selection, 4 days in supplemented media, without serum
Procedure: To assay whether or not the cells selected for by 5-FOA treatment were uracil auxotrophs, mock or UMPS targeted T cells were exposed to 5-FOA as shown in Example 4. Following 4 days of 5-FOA selection, the population of cells was split into an uracil containing media (UMP, uridine or both) and an uracil deficient media. A growth assay was subsequently performed by cell counting after following 4 days incubation in test media (Day 8) (FIG. 4A). In all cases, cell growth in the mock targeted cell cultures was negligible and independent of uracil source supplementation—indicating successful killing of non-UMPS targeted cells during the 5-FOA selection step (FIG. 4B-FIG. 4D).

[5] = system: UMPS^KO/KO/GFP^+ K562 cells; experiment: Auxotrophy assay in K562 cells
Procedure: The sorted UMPS^KO/KO/GFP^+ cell population were subjected to assays evaluating their auxotrophy and their resistance to 5-FOA. The cells were split into samples of equal numbers and cultured in the presence of different concentrations of Uridine or without. […] Cell growth was inhibited at a lower concentration (25 μg/ml) while cell numbers declined with a lower concentration or no Uridine (FIG. 6E).

[6] = UMPS knockout, metabolite 250 μg/ml

O=C(O)c1[nH]c(=O)[nH]c(=O)c1F [5-FOA, 5-fluoroorotic acid]
Intact cells (absolute) (UMPS knockout T cells [1]): 395 | Intact cells (absolute) (mock edited T cells): 580

O=c1ccn([C@@H]2O[C@H](CO)[C@@H](O)[C@H]2O)c(=O)[nH]1 [Uridine]
Cell density, Day 1 (CCR5 knockout T cells): 9.67E+05 cells per ml | Cell density, Day 2 (CCR5 knockout T cells): 1.71E+06 cells per ml | Cell density, Day 4 (CCR5 knockout T cells): 3.70E+06 cells per ml | Cell density, Day 6 (CCR5 knockout T cells): 3.92E+06 cells per ml | Cell density, Day 8 (CCR5 knockout T cells): 3.96E+06 cells per ml | Cell density, Day 1 (Mock T cells [2]): 9.78E+05 cells per ml | Cell density, Day 2 (Mock T cells [2]): 1.98E+06 cells per ml | Cell density, Day 4 (Mock T cells [2]): 3.90E+06 cells per ml | Cell density, Day 6 (Mock T cells [2]): 4.91E+06 cells per ml | Cell density, Day 8 (Mock T cells [2]): 4.09E+06 cells per ml | Cell density, Day 1 (UMPS knockout T cells [3]; [6]): 7.69E+05 cells per ml | Cell density, Day 2 (UMPS knockout T cells [3]; [6]): 1.59E+06 cells per ml | Cell density, Day 4 (UMPS knockout T cells [3]; [6]): 3.43E+06 cells per ml | Cell density, Day 6 (UMPS knockout T cells [3]; [6]): 3.79E+06 cells per ml | Cell density, Day 8 (UMPS knockout T cells [3]; [6]): 3.17E+06 cells per ml | Number of viable cells per ml, Day 1 (UMPS knockout T cells [3]; [6]): 769000 cells per ml | Number of viable cells per ml, Day 2 (UMPS knockout T cells [3]; [6]): 1590000 cells per ml | Number of viable cells per ml, Day 4 (UMPS knockout T cells [3]; [6]): 3430000 cells per ml | Number of viable cells per ml, Day 6 (UMPS knockout T cells [3]; [6]): 3790000 cells per ml | Number of viable cells per ml, Day 8 (UMPS knockout T cells [3]; [6]): 3170000 cells per ml | growth of UMPS edited culture (UMPS knockout T cells [3]; exogenous uracil source 250 μg/ml): rescued the growth of an UMPS edited culture to the same level as mock edited cells | cell proliferation after UMPS knockout (UMPS knockout T cells [3]; supplemented at 250 μg/ml): not impaired | Cells counts on Day 8 (Mock T cells [4]): 1249 and 687 | Number of cells per ml, Day 1 ([5]; 2.5 ug/ml Uridine): 57.83 cells per ml and 49.52 cells per ml and 40.56 cells per ml | Number of cells per ml, Day 1 ([5]; 25 ug/ml Uridine): 60.92 cells per ml and 69.81 cells per ml and 58.10 cells per ml | Number of cells per ml, Day 1 ([5]; 250 ug/ml Uridine): 83.41 cells per ml and 109.11 cells per ml and 64.28 cells per ml | Number of cells per ml, Day 8 ([5]; 250 ug/ml Uridine): 631.12 cells per ml and 629.35 cells per ml and 318.17 cells per ml | cell growth ([5]; Uridine 25 μg/ml): inhibited | cell growth ([5]; Uridine 250 μg/ml): expanded rapidly | cell numbers ([5]; lower Uridine concentration (2.5 μg/ml) or no Uridine): declined
